The values that follow are results of earlier work, collected in patent US7014866B2, “High dose solid unit oral pharmaceutical dosage form of amorphous nelfinavir mesylate and process for making same” (Hoffmann-La Roche Inc., priority 2001, dated 2006).

For this series the following is noted: water at pH less than or equal to 4.

Structures can show the parent of a compound that is named as a salt.

As to `Cc1c(O)cccc1C(=O)N[C@@H](CSc1ccccc1)[C@H](O)CN1C[C@H]2CCCC[C@H]2C[C@H]1C(=O)NC(C)(C)C` [Nelfinavir mesylate], the solubility in water result is on record as “slightly soluble”.
